Reference: patent US20250304537A1 (Repare Therapeutics Inc., priority 2022, published 2025)
Read-outs that look alike come from different tables or passages of the source.

Assays:
[1] = biological target: recombinant human Myt1 (full length PKMYT1) (Homo sapiens (Human), UniProt Q99640); assay: Recombinant human Myt1 kinase assay (ADP-Glo); format: biochemical; settings: 10 μM ATP
How it was run: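 ADP-Glo luminescence measured ATP hydrolysis by recombinant full-length PKMYT1 (18 nM) after 60 min at 30 °C with 10 μM ATP. Compounds in 0.5% DMSO were added to the enzyme 15 min before ATP, at 22 °C, in HEPES/MgCl2/MnCl2 buffer. IC50 and percent maximal inhibition were derived.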

[2] = system: PKMYT1 (CDK1 pThr14) in FUOV1 cells; assay: PKMYT1 cell-based activity assay, CDK1 pThr14 AlphaLISA in FUOV1 cells; settings: read-out: FUOV-1 CDK1 pThr14 IC50
How it was run: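 IC50 was derived from AlphaLISA signal (excitation 680 nm, emission 615 nm) for phospho-Thr14 CDK1 in lysates. The detection antibodies were rabbit anti-pThr14 and mouse anti-total CDK1, each at 5 nM. FUOV1 ovarian cells were exposed to compound for 2 hours before lysis.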

recombinant human Myt1 (full length PKMYT1), sequence (Q99640 whole entry): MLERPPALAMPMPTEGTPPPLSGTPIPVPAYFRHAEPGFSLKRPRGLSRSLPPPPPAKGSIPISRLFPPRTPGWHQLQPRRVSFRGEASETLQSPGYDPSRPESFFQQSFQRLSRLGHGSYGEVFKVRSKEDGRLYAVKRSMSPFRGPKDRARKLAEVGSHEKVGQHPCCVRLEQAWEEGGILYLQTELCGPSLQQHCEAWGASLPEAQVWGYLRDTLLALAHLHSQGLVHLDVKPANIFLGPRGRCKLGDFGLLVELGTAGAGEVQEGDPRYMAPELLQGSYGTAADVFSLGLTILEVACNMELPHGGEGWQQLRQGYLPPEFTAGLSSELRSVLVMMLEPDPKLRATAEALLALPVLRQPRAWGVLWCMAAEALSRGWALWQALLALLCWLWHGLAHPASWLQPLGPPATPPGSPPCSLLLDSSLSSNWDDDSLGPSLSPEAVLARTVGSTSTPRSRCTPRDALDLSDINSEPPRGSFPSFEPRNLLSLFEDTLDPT

SMILES	IC50 [1] [µM]	IC50 ([2]; 2 h, 2 hours with compound) [µM]	IC50 ([2]; 2 h, 2 h incubation) [µM]	IC50 ([2]; 2 h, 2 h compound incubation) [µM]	IC50 ([2]; 2 h incubation) [µM]
Cc1ccc2[nH]ncc2c1-c1cc(-c2cccc(OCCN3CCNCC3)n2)nc(C(N)=O)c1N [Compound 183]	0.013	–	0.281	–	–
Cc1ccc2[nH]ncc2c1-c1nc(-c2cccnc2Nc2cccc(C(N)=O)c2)nc(C(N)=O)c1N [Compound 609]	0.004	–	–	0.414	–
CNCCOc1nccc(-c2cc(-c3c(C)ccc4[nH]ncc34)c(N)c(C(N)=O)n2)n1 [Compound 210]	0.01	–	0.335	–	–
Cc1ccc2[nH]ncc2c1-c1cc(-c2cccnc2)nc(C(N)=O)c1N [Compound 107]	0.011	–	0.495	–	–
Cc1ccc2[nH]ncc2c1-c1cc(-c2cccc(F)n2)nc(C(N)=O)c1N [Compound 241]	0.01	–	1.97	–	–
Cc1ccc2[nH]ncc2c1-c1cc(-c2ccnc(OCCc3ccn(C)n3)n2)nc(C(N)=O)c1N [Compound 312]	0.009	–	0.596	–	–
Cc1ccc2[nH]ncc2c1-c1nc(-c2ccc3c(cnn3C)c2)nc(C(N)=O)c1N [Compound 114]	0.046	–	3.76	–	–
Cc1ccc2[nH]ncc2c1-c1nc(-c2cccnc2NC[C@@H]2CCOC2)nc(C(N)=O)c1N [Compound 602]	0.004	–	–	0.029	–
Cc1ccc2[nH]ncc2c1-c1nc(-c2ccccc2C(O)c2ccccn2)nc(C(N)=O)c1N (stereo not drawn) [Compound 788]	0.044	–	–	1.27	–
Cc1ccc2[nH]ncc2c1-c1nc(-c2cc(F)ccc2Nc2ncccn2)nc(C(N)=O)c1N [Compound 472]	0.006	–	–	0.026	–
Cc1ccc2[nH]ncc2c1-c1nc(-c2cnccc2NC(=O)OC(C)(C)C)nc(C(N)=O)c1N [Compound 465]	0.005	–	–	0.233	–
Cc1ccc2[nH]ncc2c1-c1cc(-c2cccc(OC[C@H](N)c3ccccc3)n2)nc(C(N)=O)c1N [Compound 276]	0.002	–	–	–	0.011
Cc1ccc2[nH]ncc2c1-c1nc(-c2cccnc2Nc2cccnc2C)nc(C(N)=O)c1N [Compound 623]	0.004	–	–	0.179	–

The remaining compounds from weak to strong by IC50 [1], led by results:

IC50 [1] [µM]	IC50 ([2]; 2 h, 2 hours with compound) [µM]	IC50 ([2]; 2 h, 2 h incubation) [µM]	IC50 ([2]; 2 h, 2 h compound incubation) [µM]	IC50 ([2]; 2 h incubation) [µM]	SMILES
0.4	–	1.18	–	–	CC[C@@H](COc1nccc(-c2cc(-c3c(C)ccc4[nH]ncc34)c(N)c(C(N)=O)n2)n1)OC (atropisomer, axis not shown) [Compound 334]
0.055	–	7.74	–	–	Cc1ccc(O)c(C)c1-c1cc(-c2nccc3ccccc23)nc(C(N)=O)c1N [Compound 48]
0.01	–	0.164	–	–	Cc1ccc2[nH]ncc2c1-c1cc(-c2cccc(N[C@H]3C[C@H](O)C3)n2)nc(C(N)=O)c1N [Compound 322]
0.009	–	0.144	–	–	COCC(COC)Oc1nccc(-c2cc(-c3c(C)ccc4[nH]ncc34)c(N)c(C(N)=O)n2)n1 [Compound 207]
0.007	–	0.388	–	–	Cc1ccc2[nH]ncc2c1-c1cc(-c2ccnc(OC(C)C)n2)nc(C(N)=O)c1N [Compound 160, 3-amino-6-(2-isopropoxypyrimidin-4-yl)-4-(5-methyl-1H-indazol-4-yl)picolinamide]
0.006	–	0.351	–	–	COC(C)(C)COc1nccc(-c2cc(-c3c(C)ccc4[nH]ncc34)c(N)c(C(N)=O)n2)n1 [Compound 327]
0.004	0.195	–	–	–	Cc1cc(F)c2[nH]ncc2c1-c1nc(-c2cn(C)nc2NC2CCOCC2)nc(C(N)=O)c1N [Compound 903, 5-amino-6-(7-fluoro-5-methyl-1H-indazol-4-yl)-2-(1-methyl-3-((tetrahydro-2H-pyran-4-yl)amino)-1H-pyrazol-4-yl)pyrimidine-4-carboxamide]
0.003	–	–	0.006	–	Cc1ccc2[nH]ncc2c1-c1nc(-c2ccccc2NC(=O)C2(F)CC2)nc(C(N)=O)c1N [Compound 461]
